Values joined by “and” are separate entries in the source; they are usually repeats but may differ in a detail not shown here. Equal entries are not always repeated. Inconclusive results and toxic doses are left out. The calls were made as follows: active = survival T/C of 150% or more; inactive = T/C below 125% in these data. Square brackets hold non-standard residues; d marks the D form. Peptide text beside a SMILES is read from it. * marks the point of attachment. Cbz = O=C(OCc1ccccc1)*; Nva = CCC[CH](N)C(=O)O
Tested on: P388 leukemia ip, CD2F1 mice, survival T/C
Experiment: NCI In Vivo Anticancer Drug Screen. Data for tumor model P388 Leukemia (intraperitoneal) in CD2F1 (CDF1) mice
Settings: endpoint: median survival time, higher = longer survival
Summary of the method: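 Mice carrying the transplanted tumor received test compound or vehicle. Survival was recorded in each group, and the value is the treated-group measurement divided by that of the vehicle-treated control group.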

[1] = dose: 50.0 mg/kg/injection, schedule: Q01DX005 (ip), vehicle: Klucel (hydroxypropylcellulose) (HPC)
[2] = dose: 100.0 mg/kg/injection, schedule: Q01DX005 (ip), vehicle: Klucel (hydroxypropylcellulose) (HPC)
[3] = dose: 50.0 mg/kg/injection, schedule: Q01DX009 (ip), vehicle: Klucel (hydroxypropylcellulose) (HPC)
[4] = dose: 100.0 mg/kg/injection, schedule: Q01DX009 (ip), vehicle: Klucel (hydroxypropylcellulose) (HPC)
[5] = dose: 200.0 mg/kg/injection, schedule: Q01DX009 (ip), vehicle: Klucel (hydroxypropylcellulose) (HPC)
[6] = dose: 25.0 mg/kg/injection, schedule: Q01DX005 (ip), vehicle: Klucel (hydroxypropylcellulose) (HPC)
[7] = dose: 50.0 mg/kg/injection, schedule: Q01DX009 (ip), vehicle: saline with Tween-80
[8] = dose: 100.0 mg/kg/injection, schedule: Q01DX009 (ip), vehicle: saline with Tween-80
[9] = dose: 200.0 mg/kg/injection, schedule: Q01DX009 (ip), vehicle: saline with Tween-80

Measured: T/C

CC(=O)CC(=O)c1ccccc1.CC(=O)CC(=O)c1ccccc1.[CH3][Sn][CH3]
inactive: dose: 100.0 mg/kg/injection, schedule: Q01DX001 (ip), vehicle: Klucel (hydroxypropylcellulose) (HPC) 95 % of control | dose: 200.0 mg/kg/injection, schedule: Q01DX001 (ip), vehicle: Klucel (hydroxypropylcellulose) (HPC) 99 % of control | dose: 400.0 mg/kg/injection, schedule: Q01DX001 (ip), vehicle: Klucel (hydroxypropylcellulose) (HPC) 96 % of control

CCCC(NC(=O)OCc1ccccc1)C(=O)NC(Cc1ccccc1)C(N)=O (stereo not given) (Cbz-[Nva]-Phe-NH2; configuration not given here)
inactive: [1] 89 % of control | [2] 97 % of control | dose: 200.0 mg/kg/injection, schedule: Q01DX005 (ip), vehicle: Klucel (hydroxypropylcellulose) (HPC) 88 % of control

CS1(=O)=N/C(=N\C(=O)Nc2ccccc2)c2ccccc21 (stereo not given)
inactive: [3] 100 % of control | [4] 102 % of control | [5] 102 % of control

COc1cccc2c1OC(=O)C(S(=O)(=O)c1ccccc1)C2 (stereo not given)
inactive: dose: 50.0 mg/kg/injection, schedule: Q01DX005 (ip), vehicle: saline with Tween-80 97 % of control | dose: 100.0 mg/kg/injection, schedule: Q01DX005 (ip), vehicle: saline with Tween-80 104 % of control | dose: 200.0 mg/kg/injection, schedule: Q01DX005 (ip), vehicle: saline with Tween-80 101 % of control

Cc1nc2ccccc2c(=O)n1/N=C1\C(=O)N(C)c2ccccc21
inactive: dose: 12.5 mg/kg/injection, schedule: Q01DX005 (ip), vehicle: Klucel (hydroxypropylcellulose) (HPC) 100 % of control | [6] 96 % of control | [1] 91 % of control and 96 % of control | [2] 105 % of control

CSC(C(C)=O)c1ccccc1 (stereo not given)
inactive: dose: 25.0 mg/kg/injection, schedule: Q01DX009 (ip), vehicle: saline with Tween-80 100 % of control | [7] 100 % of control | [8] 104 % of control

COc1cccc(CN2CC(C)N(N=Cc3c4c(O)c5c(O)c(C)c6c(c5c3O)C(=O)C(C)(O/C=C/C(OC)C(C)C(OC(C)=O)C(C)C(O)C(C)C(O)C(C)/C=C/C=C(\C)C(=O)N4)O6)C(C)C2)c1 (stereo not given)
inactive: [7] 96 % of control | [8] 95 % of control | [9] 99 % of control

CC(C)(C)NCC(O)COc1nsnc1N1CCOCC1 (stereo not given)
inactive: dose: 50.0 mg/kg/injection, schedule: Q01DX009 (ip), vehicle: water 103 % of control | dose: 100.0 mg/kg/injection, schedule: Q01DX009 (ip), vehicle: water 108 % of control | dose: 200.0 mg/kg/injection, schedule: Q01DX009 (ip), vehicle: water 111 % of control

CC1=CC(=N/Cl)/C=CC/1=N/Cl
inactive: dose: 50.0 mg/kg/injection, schedule: Q01DX005 (ip), vehicle: saline 109 % of control | dose: 100.0 mg/kg/injection, schedule: Q01DX005 (ip), vehicle: saline 111 % of control | dose: 200.0 mg/kg/injection, schedule: Q01DX005 (ip), vehicle: saline 114 % of control

N#CNC(=NC12CC3CC(CC(C3)C1)C2)Nc1ccncc1
inactive: dose: 100.0 mg/kg/injection, schedule: Q04DX002 (ip), vehicle: saline with Tween-80 100 % of control | dose: 400.0 mg/kg/injection, schedule: Q04DX002 (ip), vehicle: saline with Tween-80 109 % of control

c1ccc2[nH]c(-c3nc4ccccc4s3)cc2c1
inactive: [3] 106 % of control | [4] 108 % of control | [5] 98 % of control

COc1cc(C2c3cc4c(cc3C(=O)C(C)C2C)OCO4)ccc1O (stereo not given)
inactive: [6] 98 % of control | [1] 98 % of control | [2] 102 % of control | dose: 150.0 mg/kg/injection, schedule: Q01DX005 (ip), vehicle: Klucel (hydroxypropylcellulose) (HPC) 86 % of control

O=[n+]1c2c(n([O-])c3ccccc31)CCCCCC2
inactive: [7] 108 % of control | [8] 99 % of control | [9] 100 % of control
